Test results taken from paper PMC10584170, “Machine learning-based phenotypic imaging to characterise the targetable biology of Plasmodium falciparum male gametocytes for the development of transmission-blocking antimalarials” (PLOS Pathogens, 2023).
Read-outs that look alike come from different tables or passages of the source.

What was measured:
[1] = tested on: P. falciparum male gametocytes; assay: P. falciparum Dual Gamete Formation Assay (PfDGFA), male readout (exflagellation); format: cell-based, Plasmodium falciparum NF54; conditions: for HitlevelM: number of replicates with >50% inhibition in the male readout; for Selectivity Ratio M: HepG2 Tox50 versus male IC50; for IC50: PfDGFA, 24 h incubation with gametocytes before induction, exflagellation readout, read-out: Male IC50
Summary of the method: (§1)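 NF54 mature gametocytes (d14), cpd 24 h 37°C hypoxic gas; trigger: xanthurenic acid ookinete medium + Cy3 anti-Pfs25, 4°C 4 min → 28°C 4 min. Male: exflagellation centres, brightfield x6. Female: Pfs25+ gametes, fluorescence, +24 h 28°C dark.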

[2] = tested on: P. falciparum female gametocytes; assay: P. falciparum Dual Gamete Formation Assay (PfDGFA), female readout (Pfs25-positive female gametes); format: cell-based, Plasmodium falciparum NF54; conditions: for HitlevelF: number of replicates with >50% inhibition in the female readout; for Selectivity ratio F: HepG2 Tox50 versus female IC50; for IC50: PfDGFA, 24 h incubation with gametocytes before induction, female gamete readout, read-out: Female IC50
Summary of the method: as §1

HepG2 cells = assay: HepG2 cytotoxicity counter-screen; conditions: cytotoxic activity against HepG2 cells
[3] = 2µM, 24h preincubation with gametocytes, average of replicates
[4] = 2µM, 24h preincubation with gametocytes, replicate R1
[5] = 2µM, 24h preincubation with gametocytes, replicate R3
[6] = 2µM, 24h preincubation with gametocytes, replicate R4
[7] = Plasmodium falciparum, PfDGFA at 2µM, 24h preincubation with gametocytes, average of replicates, read-out: Average inhibition male (%)
[8] = Plasmodium falciparum, PfDGFA at 2µM, 24h preincubation with gametocytes, replicate R1, read-out: % inhibition male (individual replicates) R1
[9] = Plasmodium falciparum, PfDGFA at 2µM, 24h preincubation with gametocytes, replicate R2, read-out: % inhibition male (individual replicates) R2
[10] = Plasmodium falciparum, PfDGFA at 2µM, 24h preincubation with gametocytes, replicate R3, read-out: % inhibition male (individual replicates) R3
[11] = Plasmodium falciparum, PfDGFA at 2µM, 24h preincubation with gametocytes, replicate R4, read-out: % inhibition male (individual replicates) R4
[12] = Plasmodium falciparum, PfDGFA at 2µM, 24h preincubation with gametocytes, average of replicates, read-out: Average inhibition female (%)
[13] = Plasmodium falciparum, PfDGFA at 2µM, 24h preincubation with gametocytes, replicate R1, read-out: % inhibition female (individual replicates) R1
[14] = Plasmodium falciparum, PfDGFA at 2µM, 24h preincubation with gametocytes, replicate R2, read-out: % inhibition female (individual replicates) R2
[15] = Plasmodium falciparum, PfDGFA at 2µM, 24h preincubation with gametocytes, replicate R3, read-out: % inhibition female (individual replicates) R3
[16] = Plasmodium falciparum, PfDGFA at 2µM, 24h preincubation with gametocytes, replicate R4, read-out: % inhibition female (individual replicates) R4
[17] = PfDGFA at 2µM, 24h preincubation with gametocytes, average of replicates
[18] = PfDGFA at 2µM, 24h preincubation with gametocytes, replicate R1
[19] = PfDGFA at 2µM, 24h preincubation with gametocytes, replicate R3
[20] = PfDGFA at 2µM, 24h preincubation with gametocytes, replicate R4
[21] = Plasmodium falciparum, 2µM, 24h preincubation with gametocytes, average of replicates, read-out: Average inhibition male (%)
[22] = Plasmodium falciparum, 2µM, 24h preincubation with gametocytes, replicate R1, read-out: % inhibition male (individual replicates) R1
[23] = Plasmodium falciparum, 2µM, 24h preincubation with gametocytes, replicate R2, read-out: % inhibition male (individual replicates) R2
[24] = Plasmodium falciparum, 2µM, 24h preincubation with gametocytes, replicate R3, read-out: % inhibition male (individual replicates) R3
[25] = Plasmodium falciparum, 2µM, 24h preincubation with gametocytes, replicate R4, read-out: % inhibition male (individual replicates) R4
[26] = Plasmodium falciparum, 2µM, 24h preincubation with gametocytes, average of replicates, read-out: Average inhibition female (%)
[27] = Plasmodium falciparum, 2µM, 24h preincubation with gametocytes, replicate R1, read-out: % inhibition female (individual replicates) R1
[28] = Plasmodium falciparum, 2µM, 24h preincubation with gametocytes, replicate R2, read-out: % inhibition female (individual replicates) R2
[29] = Plasmodium falciparum, 2µM, 24h preincubation with gametocytes, replicate R3, read-out: % inhibition female (individual replicates) R3
[30] = Plasmodium falciparum, 2µM, 24h preincubation with gametocytes, replicate R4, read-out: % inhibition female (individual replicates) R4

SMILES	Selectivity Ratio M [1]	IC50 ([1]; Plasmodium falciparum) [nM]	Selectivity ratio F [2]	IC50 ([2]; Plasmodium falciparum) [nM]	Tox50 (HepG2 cells) [µM]	IC50 [1] [nM]	IC50 [2] [nM]	inhibition at 2 µM [1, 7] [%]	inhibition at 2 µM [1, 8] [%]	inhibition at 2 µM [1, 9] [%]	inhibition at 2 µM [1, 10] [%]	inhibition at 2 µM [1, 11] [%]	HitlevelM ([1]; 2µM)	inhibition at 2 µM [2, 12] [%]	inhibition at 2 µM [2, 13] [%]	inhibition at 2 µM [2, 14] [%]	inhibition at 2 µM [2, 15] [%]	inhibition at 2 µM [2, 16] [%]	HitlevelF ([2]; 2µM)	inhibition at 2 µM [1, 21] [%]	also measured
CN1CCN(c2ccc(Nc3c4ccccc4nc4ccccc34)cc2)CC1 [TCMDC-123912]	45.1	590	3.01	8840	26.65																HitlevelM ([1]; 2µM, 24h preincubation): 3; inhibition at 2 µM ([1]; Plasmodium falciparum, 2µM, 24h preincubation with gametocytes prior to induction of gametogenesis, average of replicates, read-out: Average inhibition male (%)): 62.8%; inhibition at 2 µM ([1]; Plasmodium falciparum, 2µM, 24h preincubation with gametocytes prior to induction of gametogenesis, replicate R1, read-out: % inhibition male (individual replicates) R1): 83%; inhibition at 2 µM ([1]; Plasmodium falciparum, 2µM, 24h preincubation with gametocytes prior to induction of gametogenesis, replicate R2, read-out: % inhibition male (individual replicates) R2): 83.6%; inhibition at 2 µM ([1]; Plasmodium falciparum, 2µM, 24h preincubation with gametocytes prior to induction of gametogenesis, replicate R3, read-out: % inhibition male (individual replicates) R3): 12.9%; inhibition at 2 µM ([1]; Plasmodium falciparum, 2µM, 24h preincubation with gametocytes prior to induction of gametogenesis, replicate R4, read-out: % inhibition male (individual replicates) R4): 71.6%; HitlevelF ([2]; 2µM, 24h preincubation): 0; inhibition at 2 µM ([2]; Plasmodium falciparum, 2µM, 24h preincubation with gametocytes prior to induction of gametogenesis, average of replicates, read-out: Average inhibition female (%)): 9.1%; inhibition at 2 µM ([2]; Plasmodium falciparum, 2µM, 24h preincubation with gametocytes prior to induction of gametogenesis, replicate R1, read-out: % inhibition female (individual replicates) R1): 23.8%; inhibition at 2 µM ([2]; Plasmodium falciparum, 2µM, 24h preincubation with gametocytes prior to induction of gametogenesis, replicate R2, read-out: % inhibition female (individual replicates) R2): 8%; inhibition at 2 µM ([2]; Plasmodium falciparum, 2µM, 24h preincubation with gametocytes prior to induction of gametogenesis, replicate R3, read-out: % inhibition female (individual replicates) R3): 0.7%; inhibition at 2 µM ([2]; Plasmodium falciparum, 2µM, 24h preincubation with gametocytes prior to induction of gametogenesis, replicate R4, read-out: % inhibition female (individual replicates) R4): 4.1%
CCOC(=O)c1cc2c(CCN3C(=O)c4ccccc4C3=O)cn(C)c2cc1-c1ccncc1 [TCMDC-138099]	2.3		1		1.57	680	1560														Average inhibition male (%) [1, 3]: 101.6%; % inhibition male (individual replicates) R1 [1, 4]: 102.0%; % inhibition male (individual replicates) R3 [1, 5]: 99.5%; % inhibition male (individual replicates) R4 [1, 6]: 102.4%; Average inhibition female (%) [2, 3]: 93.8%; % inhibition female (individual replicates) R1 [2, 4]: 94.3%; % inhibition female (individual replicates) R3 [2, 5]: 100.9%; % inhibition female (individual replicates) R4 [2, 6]: 92.0%
CCN(CC)CCOc1ccc(Nc2ncc3cc(-c4c(Cl)cccc4Cl)c(=O)n(C)c3n2)cc1 [TCMDC-140940]	1.38	1930	0.27	> 10000	2.66			72.1	72.9	64.9	74	76.8	4	-0.6	-7.5	1.2	-12	15.8	0		
COc1cc2nc(NCCCN3CCCCC3)nc(NCc3ccccc3)c2cc1OC [TCMDC-132012]	5.75		1.71		10.87	1890	6340						3						4		Average inhibition male (%) [1, 17]: 71.6%; % inhibition male (individual replicates) R1 [1, 18]: 87.9%; % inhibition male (individual replicates) R3 [1, 19]: 87.5%; % inhibition male (individual replicates) R4 [1, 20]: 91.8%; Average inhibition female (%) [2, 17]: 56.5%; % inhibition female (individual replicates) R1 [2, 18]: 53.1%; % inhibition female (individual replicates) R3 [2, 19]: 57.0%; % inhibition female (individual replicates) R4 [2, 20]: 64.1%
O=C(c1ccc(-c2cnc3[nH]cc(-c4ccc(C(=O)N5CCOCC5)cc4)c3c2)cc1)N1CCOCC1 [TCMDC-132781]	66.32	440	2.9	> 10000	28.99			77	90.7	89.1	77.8	50.2	4	9.1	7.2	16.3	1.6	11.4	0		
CCN1CCN(c2ccc(Nc3c4ccccc4nc4ccccc34)cc2)CC1 [TCMDC-124255]	8.44		2.14		14.96	1770	6980						4						0		Average inhibition male (%) [1, 17]: 77.2%; % inhibition male (individual replicates) R1 [1, 18]: 84.6%; % inhibition male (individual replicates) R3 [1, 19]: 78.3%; % inhibition male (individual replicates) R4 [1, 20]: 87.4%; Average inhibition female (%) [2, 17]: -4.4%; % inhibition female (individual replicates) R1 [2, 18]: -2.2%; % inhibition female (individual replicates) R3 [2, 19]: -22.1%; % inhibition female (individual replicates) R4 [2, 20]: 3.0%
Fc1ccc2[nH]c(-c3ccc(-c4ccc(CNCCN5CCNCC5)cc4)s3)nc2c1.O=C(O)C(F)(F)F [TCMDC-132869]	12.22	1970	3.35	7180	24.05			66.3	55.2	84.7	32.6	92.9	3	6.1	10.8	10.6	-3.4	6.4	0		
CN1CCN(c2ccc(Nc3ncc(Cl)c(Nc4cccnc4C(N)=O)n3)cc2)CC1.Cl [TCMDC-134164]	13.8	460	1.15	5470	6.29															93.6	inhibition at 2 µM [1, 22]: 95.4%; inhibition at 2 µM [1, 23]: 93.6%; inhibition at 2 µM [1, 24]: 90.2%; inhibition at 2 µM [1, 25]: 95.2%; inhibition at 2 µM [2, 26]: -2.7%; inhibition at 2 µM [2, 27]: -3.8%; inhibition at 2 µM [2, 28]: 5.1%; inhibition at 2 µM [2, 29]: -16.9%; inhibition at 2 µM [2, 30]: 4.9%
Nc1cc(C=Cc2ccc([N+](=O)[O-])o2)nc2ccccc12 [TCMDC-142295]	16.74	160	6.49	400	2.6															98.9	inhibition at 2 µM [1, 22]: 98.2%; inhibition at 2 µM [1, 23]: 98.8%; inhibition at 2 µM [1, 24]: 98.4%; inhibition at 2 µM [1, 25]: 100%; inhibition at 2 µM [2, 26]: 93.7%; inhibition at 2 µM [2, 27]: 96.4%; inhibition at 2 µM [2, 28]: 95.7%; inhibition at 2 µM [2, 29]: 93.8%; inhibition at 2 µM [2, 30]: 88.9%
O=c1c(Br)ccccc1Br [TCMDC-142246]	47.29	150	63.16	110	6.95															98.7	inhibition at 2 µM [1, 22]: 98.2%; inhibition at 2 µM [1, 23]: 102%; inhibition at 2 µM [1, 24]: 94.6%; inhibition at 2 µM [1, 25]: 99.6%; inhibition at 2 µM [2, 26]: 96.5%; inhibition at 2 µM [2, 27]: 93.6%; inhibition at 2 µM [2, 28]: 94.7%; inhibition at 2 µM [2, 29]: 103%; inhibition at 2 µM [2, 30]: 94.9%
